Experiment in all cases: NCI-60 cell line screen, 48 h
The test system of assay [1] is DU-145.
The test system of assay [2] is HOP-62.
The subject of assay [3] is KM12.
The test system of assay [4] is MDA-MB-435.
Assay [5] relates to MDA-N.
For assay [6], the system named is NCI-H522.
Assay [7] has as its system OVCAR-3.
The subject of assay [8] is OVCAR-8.
Assay [9] relates to PC-3.
Assay [10] deals with SF-539.
Assay [11] concerns SK-MEL-5.
Assay [12] has as its system SK-OV-3.
Assay [13] has as its system SN12C.
The subject of assay [14] is SNB-19.
The test system of assay [15] is TK-10.
Assay [16] relates to EKVX.
In assay [17] the test system is IGROV-1.
For assay [18], the system named is NCI-H226.
The test system of assay [19] is LOX IMVI.
Assay [20] concerns HL-60.

Results on eleven compounds are retold here after ChEMBL document CHEMBL1201862, “PubChem BioAssay data set” (2004).

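Briefly, cells in 96-well plates were exposed to five compound concentrations for 48 h, and endpoints were estimated by linear interpolation. GI50 = concentration required for 50% inhibition of growth.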 Activity calls are given as the source filed them. No stated cut-off is given here; in the data, active = GI50 up to about 1.1 µM and inactive = higher.

As to `CCCC1(N2C(=O)c3ccc4c5c(ccc(c35)C2=O)N(C2(CCC)CCCCC2)C4=O)CCCCC1`, the GI50 in assay [1], in assay [2], in assay [3], in assay [4], in assay [5] and in assay [6] was > 100 µM (inactive) throughout. Besides, the GI50 in assay [7], in [8], in [9], in [10], in [11] and in [12] was > 100 µM (inactive) each time. Besides, the GI50 in assay [13], in assay [14] and in assay [15] was > 100 µM (inactive) each time.
As for `N=C(N)NC(=N)Nc1c(F)c(F)c(F)c(F)c1F`, the GI50 in assay [1] is > 100 µM (inactive); in [16], 44.1 µM (inactive); in assay [2], > 100 µM (inactive); in assay [17], > 100 µM (inactive); in assay [3], > 100 µM (inactive); in assay [4], > 100 µM (inactive). For the same compound, the GI50 in assay [5] was 69.7 µM (inactive); in assay [18], > 100 µM (inactive); in assay [6], 93.8 µM (inactive); in [7] it was > 100 µM (inactive); in assay [8] it was > 100 µM (inactive); in assay [9] it was 97.9 µM (inactive). Besides, the GI50 in assay [10] was > 100 µM (inactive); in [11] it was 44.8 µM (inactive); in [12] it was > 100 µM (inactive); in assay [13], > 100 µM (inactive); in assay [14] it was > 100 µM (inactive); in [15], 95.9 µM (inactive).
Take `CC(/C=N\NC(=S)N1CCCCC1)=N/NC(=S)N1CCCCC1`: the GI50 was 0.547 µM (active) in assay [1]; 1.88 µM (inactive) in assay [16]; 0.991 µM (active) in assay [2]; 1.04 µM (active) in assay [17]; 1.09 µM (active) in [3]; 0.82 µM (active) in assay [19]. For the same compound, the GI50 in assay [4] was 2.75 µM (inactive); in assay [5] it was 2.89 µM (inactive); in assay [18], 1.09 µM (active); in assay [6], 1.54 µM (inactive); in assay [7], 1.53 µM (inactive); in assay [8], 0.551 µM (active). Further, the GI50 in [9] was 0.957 µM (active); in assay [10], 3.65 µM (inactive); in assay [11], 1.23 µM (inactive); in assay [12], 1.04 µM (active); in assay [13], 1.35 µM (inactive); in [14], 2.14 µM (inactive). Further, the GI50 in assay [15] was 2.06 µM (inactive).
As for `CCCC[Si](CCCC)(CCCC)O[C@@H](/C=C/C(=O)OCC)[C@H](Cc1ccccc1)O[Si](CCCC)(CCCC)CCCC`, the GI50 in assay [1], in [16], in assay [2], in assay [17], in assay [3] and in assay [19] was > 100 µM (inactive) throughout. Besides, the GI50 in assay [4], in assay [5], in [18], in [6], in [8] and in assay [9] was > 100 µM (inactive) in each case. The GI50 in assay [10] was > 100 µM (inactive); in assay [12], > 100 µM (inactive); in [13], > 100 µM (inactive); in [14], > 100 µM (inactive); in assay [15] it was 40.1 µM (inactive).
For `Cn1c(-c2ccccc2)cc(-c2ccc3c(c2)OCO3)c1-c1cccs1`, the GI50 in [1], in [16], in assay [20], in assay [2], in assay [17] and in assay [3] was > 100 µM (inactive) each time. Further, the GI50 in [19], in [4], in assay [5], in [18], in [7] and in assay [8] was > 100 µM (inactive) each time. The GI50 in assay [9], in assay [10], in [11], in assay [12], in assay [13] and in assay [14] was > 100 µM (inactive) throughout. Besides, the GI50 in assay [15] is > 100 µM (inactive).
`O=C(O)C(C1NCCS1)N1Cc2ccccc2C1` (centres undefined): the GI50 in assay [1], in assay [16], in assay [20], in assay [2], in [17] and in [3] was > 100 µM (inactive) in each case. Also, the GI50 in assay [19], in assay [4], in assay [5], in assay [18], in assay [7] and in assay [8] was > 100 µM (inactive) throughout. For the same compound, the GI50 in assay [9], in assay [10], in assay [11], in [12], in assay [13] and in assay [14] was > 100 µM (inactive) in each case. The GI50 in [15] was > 100 µM (inactive).
Regarding `CCn1c(O)c(C(=O)NC(C)c2ccc([N+](=O)[O-])cc2)c(=O)n(CC)c1=S` (centres undefined), the GI50 in assay [1] was 2.54 µM (inactive); in assay [16], 3.23 µM (inactive); in [20], 2.28 µM (inactive); in assay [2] it was 2.31 µM (inactive); in [17] it was 2.75 µM (inactive); in assay [3], 2.01 µM (inactive). The GI50 in assay [19] is 2.31 µM (inactive); in assay [4], 3.62 µM (inactive); in assay [5], 3.59 µM (inactive); in [18], 2.75 µM (inactive); in [7], 2.16 µM (inactive); in [9], 0.773 µM (active). Moreover, the GI50 in [10] is 3.93 µM (inactive); in [11], 3.13 µM (inactive); in assay [12], 3.09 µM (inactive); in [13] it was 3.52 µM (inactive); in assay [14], 1.93 µM (inactive); in assay [15] it was 4.06 µM (inactive).
As for `C[C@H](OC(=O)/C=C/c1ccc(O)c(O)c1)[C@H](C)OC(=O)/C=C/c1ccc(O)c(O)c1`, the GI50 was 11.6 µM (inactive) in [1]; 14.7 µM (inactive) in assay [16]; 11.1 µM (inactive) in assay [2]; 5.2 µM (inactive) in assay [17]; 5.25 µM (inactive) in assay [3]; 3.35 µM (inactive) in assay [19]. The GI50 is 4.84 µM (inactive) in [4]; 4.45 µM (inactive) in [5]; 6.98 µM (inactive) in assay [6]; 4.24 µM (inactive) in assay [7]; 6.15 µM (inactive) in [8]; 13.1 µM (inactive) in assay [9]. In addition, the GI50 in assay [10] was 9.48 µM (inactive); in assay [11], 6.12 µM (inactive); in [12] it was 16.3 µM (inactive); in assay [13] it was 11.5 µM (inactive); in assay [14], 7.93 µM (inactive); in assay [15], 10 µM (inactive).
Regarding `NCC1Nc2ccccc2[C@@H](O)C1O` (some centres undefined), the GI50 in assay [1], in [16], in assay [20], in assay [2], in assay [17] and in assay [3] was > 100 µM (inactive) each time. The GI50 in assay [19], in [4], in [5], in assay [18], in [7] and in assay [8] was > 100 µM (inactive) throughout. Further, the GI50 in assay [9], in assay [10], in [11], in assay [12], in [13] and in assay [14] was > 100 µM (inactive) throughout. Besides, the GI50 in assay [15] was > 100 µM (inactive).
As to `COc1ccccc1N1CCN(S(=O)(=O)c2ccc(Cl)cc2)C1=N`, the GI50 was 47.5 µM (inactive) in assay [1]; 26.9 µM (inactive) in assay [16]; > 100 µM (inactive) in assay [2]; 82.4 µM (inactive) in assay [3]; 45.9 µM (inactive) in [4]; 49.3 µM (inactive) in assay [5]. The GI50 in [6] is 40.5 µM (inactive); in assay [7], 97.9 µM (inactive); in assay [8] it was 63.2 µM (inactive); in [9], 56.8 µM (inactive); in assay [10] it was 81.3 µM (inactive); in [11], 56.2 µM (inactive). In addition, the GI50 in [12] was > 100 µM (inactive); in assay [13], > 100 µM (inactive); in assay [14] it was 51.3 µM (inactive); in assay [15], 60.7 µM (inactive).
With `O=C1CSc2ccnc(=O)n21`, the GI50 in [1], in [16], in assay [20], in [2], in assay [17] and in assay [4] was > 100 µM (inactive) throughout. Further, the GI50 in [5], in [6], in assay [8], in [9], in assay [10] and in [11] was > 100 µM (inactive) in each case. Besides, the GI50 in assay [12], in assay [13], in assay [14] and in assay [15] was > 100 µM (inactive) each time.
